Experimental data: patent US6531582B1, “2-O-(9z,12z-octadecadienoyl)-3-O-[α-D-galactopyranosyl-(1″-6′)-O-α-D-galactopyranosyl]glycerol and pharmaceutical composition containing the same” (priority 2000, dated 2003)
“Also recorded” adds a separate entry of the source.

What was measured:
edema of arthritis = assay: Inhibitory effect on edema of arthritis (Zymosan-A/Freund's adjuvant induced paw edema); format: in vivo; details: albino rats; for inhibitory effect on edema: test for edema induction
Protocol: In order to observe the inhibitory effect on edema of the pharmaceutical composition of the present invention, 6 albino rats weighing 200 g were used per test group to induce edema by injecting the mixture of 0.5 ml of Zymosan-A (20 mg/ml/kg) and 0.5 ml of Freund's adjuvant into ST36 position of left paw and then observed for the progress of edema for 70 days by taking a photograph before and after induction of edema. The water extract and organic solvent fractions of the pharmaceutical composition of the present invention were respectively constituted in the concentration of 0.6 mg/ml and then orally administered for 14 days to albino rats in an amount of 1 ml per kg of body weight once a day to determine the inhibitory effect on edema. As the test sample, the organic solvent fractions of the pharmaceutical composition including ABE, ABB, ABW, CBE, CBB, CBW, LNE, LNB, LNW, CRB, CRW, SSH and SSW were respectively used. As the result of this test, it was observed that edema was started to induce on day 4 and reached the peak point after about 45 days. The period for this test was established as 70 days after edema induction to observe the inhibitory effect on edema of the extracts of the present invention. As the result, the edema size was measured using a precision gauge.
The inihibitory effect on edema of the compound according to the present invention as measured after 70 days have passed are listed in the following Tables 2 and 3 and FIG. 4.

[1] = Effect of the compounds separated from Cibotii rhizoma on arthritis; details: summary statement
smooth muscle = details: cited from earlier work
iNOS = assay: Inhibition of iNOS expression at the level of transcription through RT-PCR; format: cell-based, human; details: FIG. 12a, lanes 1-8; 50 μg/ml, LPS-stimulated
Protocol: (§1) In order to identify the ingredient having an inhibitory activity against COX-II and inducible nitric oxide synthetase (iNOS) as the causal factors of rheumatoid arthritis in the extract used as the effective component of the pharmaceutical composition according to the present invention as in Experiment 7 above, the cells were distributed in T75 flask at the concentration of 10^5 cells, incubated for 7 days and then stimulated for 2 hours by introducing LPS in the flask at the concentration of 50 ng/ml. Then, the extract of the present invention was added so as to make the final concentration of 50 μg/ml. The cells were harvested into a 1.5 ml Eppendorf tube and centrifuged with 15,000 rpm at 4° C. for 15 minutes to remove the supernatant. 200 μl of RNAzol solution was added to the residue followed by addition of 50 μl of chloroform. The cells were lysed by careful pippeting, and then centrifuged with 15,000 rpm at 4° C. for 15 minutes to recover a total RNA, which was then precipitated at 4° C. for 15 minutes by adding the same volume of isopropanol, washed once with 75% ethanol and then dried. The cell lysate was dissolved by adding 20 μl of RNase free D2O and then warming the mixture at 60° C. for 30 minutes. […]

[2] = system: cartilage and bone of arthritic joint; assay: Joint rupture in edema-inhibited albino rats by X-ray analysis; format: in vivo; details: edema-induced albino rats, oral, about 70 days
Protocol: FIG. 13 is X-ray photograph to show the 70-days inhibitory effect on edema as one of chronic and degenerative osteopathological symptoms of arthritis by treating the induced edema with respective fractions obtained as the organic solvent fractions of the pharmaceutical composition in an amount of 75 μg/ml for 2 weeks via oral route.
The respective water extract and organic solvent fractions were orally administered for 14 days at the concentration of 75 μg/ml to investigate their inhibitory effect on edema as in Experiment 1. The test albino rats were anesthetized to take X-ray photograph.

COX-II = assay: Inhibition of COX-II expression at the level of transcription through RT-PCR; format: cell-based, human
Protocol: as §1

synovial cell lines = assay: Effect on cell cycle of synovial cell lines (flow cytometry); format: cell-based, human; details: LPS-stimulated, 20 μg/ml
Protocol: (§2) Two kinds of cells were incubated as in Experiment 6 and then washed with PBS (phosphate-buffered saline). LPS was distributed on the respective dishes at the concentration of 50 μg/ml to stimulate the cells. Then, the extract according to the present invention was added over 2 hours so as to make the final concentration of 20 μg/ml. The supernatant was removed, washed with PBS and then treated with trypsin. The cells were harvested, introduced into Eppendorf tube and then centrifuged at 1,000 rpm for 5 minutes to remove the supernatant. The residue was fixed with addition of 1 ml of 100% ethanol. At this time, the mixture of 5 μg/ml propidium iodide and RNAse was separately prepared. The fixed cells were centrifuged to remove the supernatant and then washed once with PBS. Simultaneously, the staining agent as previously prepared above was added to the fixed cells and then warmed in an incubator at 37° C. for 30 minutes. The cells stained with propidium iodide was sealed with foil, stored at 4° C. and then subjected to a flow cytometry analysis using FACscan (Becton Dickinson, Calif.) as the analyzing apparatus.

Raw 264.7 cell lines [3] = assay: Effect on cell cycle of macrophage cells (flow cytometry); format: cell-based; details: Raw 264.7, LPS-stimulated, 20 μg/ml
Protocol: as §2

synovial cells = assay: Induction of apoptosis of synovial cell lines; format: cell-based, human; details: 24 hours, microscopy
Protocol: The synovial cells separated from outpatients suffering from rheumatoid arthritis were distributed on 5% DMEM medium supplemented with penicillin/streptomycin in a 6-well culture dish at the concentration of 10^4 cells and then incubated for 24 hours at 37° C. to observe the surviving cells. In order to determine the presence or absence of cells and the proliferating state of cells, apoptosis-induced cells were examined by taking their photographs under a phase-contrast microscope of 200 magnifications.
(§3) In order to determine whether the compound identified as the effective component of the pharmaceutical composition separated according to the present invention can induce the apoptosis of Raw 264.7 cell lines as macrophage involved in inflammatory reaction and synovial cells, the cells were distributed on 5% DMEM medium supplemented with penicillin/streptomycin in a 6-well culture dish at the concentration of 10^4 cells and then incubated at 37° C. for 24 hours while adding the extractions as above at the concentration of 10 μg/ml to observe the reaction. Apoptosis was examined by taking a photograph of apoptosis-induced cells under a polarizing microscope of 200 magnifications.

[4] = system: CAM formation induced by synovial cells; assay: Angiogenesis of synovial cells in chorioallantoic membrane (CAM) of fertilized egg; format: in vivo; details: 10 μg/ml on CAM, synovial cells injected, compared to control group
Protocol: In order to determine the effect of the organic solvent fractions on the angionenesis of synovial cells using the cells separated in Experiment 2, synovial cells were injected into fertilized egg and then incubated in an incubator at 37° C. for 3 days to observe the formation of chorioallantoic membrane (CAM). In the present state, the fractions separated according to the above method were respectively distributed on CAM at the concentration of 10 μg/ml to observe the degree of CAM decrease.

Raw 264.7 cell lines [5] = assay: Induction of apoptosis of macrophages; format: cell-based; details: Raw 264.7, 24 hours, microscopy
Protocol: as §3

[6] = system: nogo-A expressed U-373 MG glioblastoma cell line; assay: Therapeutic effect on vertebral neuroparalysis (neurite regeneration in nogo-A expressing cells); format: cell-based; details: nogo-A expressed U-373 cell lines, phase-contrast microscopy
Excerpt: Simultaneously, it was also observed whether neurites can be regenerated by treatment with neuronal growth factor (NGF) or whether the fractions of the present invention can provide the same effect, by taking a photograph with a phase-contrast microscope of 200 magnifications.

[7] = system: NO formation in RAW 264.7 cell lines; assay: NO formation in macrophage cells stimulated by lipid polysaccharide (Greiss reagent); format: cell-based; details: 10 μg/ml, LPS-stimulated RAW 264.7
Protocol: FIG. 7 is (a) a bar graph showing the inhibition of NO formation when Raw 264.7 cell lines are treated with the organic solvent fraction of a single drug of the pharmaceutical composition at the concentration of 10 μg/ml for 24 hours an then stimulated with LPS, and (b) a bar graph showing the inhibition of NO formation when the cell lines treated with CBB fraction and LNE fraction as the organic solvent fractions are stimulated with LPS according to the same manner as above (a).
In order to identify whether the extracts obtained according to the present invention can inhibit the synthesis of nitric oxide (NO) as the potent inducer of inflammation in blood due to edema as above, macrophage RAW 264.7 cell lines were distributed in a 96-well microplate at the concentration of 10^3 cells per well and then incubated for 12 hours. Then, lipid polysaccharide was added to the plate at the concentration of 50 ng/well to stimulate the cells for 2 hours. The respective organic solvent fractions were added to the plate to the final concentration of 10 μg/ml followed by addition of 50 μl of Greiss reagent solution, and then allowed to react together at room temperature. Then, the absorbance of the plate was measured at 540 nm of ELISA (enzyme-linked immunosorbent assay) reader. […]

Molecule	inhibitory effect on edema (edema of arthritis)	pharmacological effect on arthritis [1]	activity for relaxing smooth muscle (smooth muscle)	effect on iNOS expression (RT-PCR, band near 278 bp) (iNOS)	osteogenesis (X-ray) [2]	rupture of cartilage in arthritic portion (X-ray) [2]	effect on COX-II expression (RT-PCR) (COX-II; FIG. 12a, lanes 1-8, 50 μg/ml, LPS-stimulated)	effect on COX-II expression (RT-PCR) (COX-II; FIG. 12c, respective fractions)	effect on cell cycle (synovial cell lines)	effect on cell cycle (Raw 264.7 cell lines [3])	induction of apoptosis (synovial cells)	edema size, Before treatment (edema of arthritis; Table 3 (unit not given), oral, baseline before treatment, in mm)	edema size, After treatment (edema of arthritis; Table 3 (unit not given), oral, measured after 70 days, in mm)	inhibition of induction of CAM formation [4]	induction of apoptosis (Raw 264.7 cell lines [5])	regeneration of neurites [6]	inhibition of NO formation [7]
CC[C@H](CC[C@@H](C)[C@H]1CC[C@H]2[C@@H]3CC=C4C[C@@H](O[C@@H]5O[C@H](CO)[C@@H](O)[C@H](O)[C@H]5O)CC[C@]4(C)[C@H]3CC[C@]12C)C(C)C [CBB-12, daucosterol]	potent inhibitory effect on edema																
Cc1c(O)c2c(c(C)c1CCO)C(=O)C(C)(C)C2 [CBB-11, onitin]		moderate pharmacological effect	activity for relaxing smooth muscle														
2-O-(9z,12z-octadecadienyl)-3-O-[α-galactopyranosyl-(1″-6′)-O-α-D-galactopyranosyl]glycerol [CBB-13]	potent inhibitory effect on edema; also recorded: most significant	most excellent pharmacological effect		have an effect on the protein expression	effect of stimulating the osteogenesis	inhibits the rupture of cartilage in arthritic portion	inhibitory effect at the level of transcription	strongly inhibit the protein expression	pattern of G0/G1 arrest	induced the apoptosis	more strongly inducing the apoptosis	14.4 ± 2	2.5 ± 1	more strongly inhibited the induction of CAM formation	more strongly inducing the apoptosis	neurites were lengthened	stronger inhibitory effect on NO formation
